Source: patent publication US20050143463A1, “Method of inhibiting angiogenesis” (THE QUEEN ELIZABETH HOSPITAL RESEARCH FOUNDATION INC., priority 2002, published 2005)

Columns and labels:
[1] = test system: chicken chorioallantoic membrane (CAM); experiment: Chicken chorioallantoic membrane (CAM) assay for angiogenesis; type: in vivo; conditions: for Vein length (%) / Artery length (%) / Total vessel length (%) / Vein Diameter (%): % of control, Mean ± SEM
Procedure: Fertilised chicken eggs (HiChick Breeding Co, Kapunda, South Australia) were incubated for three days at 38° C. On Day 3 the embryos were cracked out of the egg and into a cup made of plastic piping, with plastic film stretched over the top to form a hammock for the egg to be suspended in. Two ml of DMEM containing penicillin and streptomycin was added to each cup prior to the egg being added. A petri dish on the top maintained sterility. Incubation continued in a humidified 37° C. incubator.
On Day 4 the chorioallantoic membrane (CAM) begins to grow, and pictures were taken of each embryo at ×5 to measure the CAM area using image analysis software (Video Pro 32, Leading Edge Pty Ltd, South Australia).
Embryos were then grouped according to their CAM area, with a control embryo in each for comparison. Grouping is critical as in these early developmental stages changes in the CAM growth are dramatic. Relatively small differences in size on Day 4 translate to large differences in the CAM on Day 5. Treatment was applied in methylcellulose discs, which were dried under vacuum overnight. The methylcellulose discs were applied to the top of the CAM, and at the beginning of treatment were at least three to four-fold bigger than the CAM area, meaning treatment covered the entire CAM surface.
On Day 5 skim milk with contrast medium was injected into the CAM. Pictures were then taken at various levels of magnification up to ×63. Quantitative measurements were made from ×5 pictures. CAM area, and vein and artery lengths were measured using image analysis (Video Pro 32, Leading Edge Pty Ltd, South Australia). Relative vessel lengths were then calculated as the total length/CAM area. Statistical analysis was made using SigmaStat and OneWay ANOVA with p<0.05 as the level of significance.

Aqueous solubility = type: physicochemical

CCC(C)CCCCCCCCCCC(=O)O (stereo not drawn) [12-MTA, 12-methyltetradecanoic acid]
Vein length (%) ([1]; 25 nmol on methylcellulose disc): 82.1 ± 22.9% | Artery length (%) ([1]; 25 nmol): 81.8 ± 11.6% | Total vessel length (%) ([1]; 25 nmol): 79.8 ± 15.0% | Vein Diameter (%) ([1]; 25 nmol): 89.3 ± 25.2% | Vein length (%) ([1]; 50 nmol on methylcellulose disc): 74.4 ± 20.8% | Artery length (%) ([1]; 50 nmol): 78.8 ± 12.2% | Total vessel length (%) ([1]; 50 nmol): 74.9 ± 14.7% | Vein Diameter (%) ([1]; 50 nmol): 59.1 ± 11.2% | Vein length (%) ([1]; 100 nmol on methylcellulose disc): 46.0 ± 8.7^1% | Artery length (%) ([1]; 100 nmol): 63.8 ± 4.0^1% | Total vessel length (%) ([1]; 100 nmol): 54.9 ± 4.3^1% | Vein Diameter (%) ([1]; 100 nmol): 45.9 ± 10.0^1% | number of branching capillaries sprouting from the main vessels ([1]; 500 nmol): reduction | vessel area ([1]; 500 nmol): diminished | cytotoxicity to the embryo ([1]; chicken embryo, CAM assay): not cytotoxic | inhibition of angiogenesis in the CAM assay, dose dependent (in words) ([1]; dose dependent manner): inhibit angiogenesis | effect of the lowest dose on vein length, artery length, total vessel length and vein diameter (in words) ([1]; lowest dose (25 nmol)): inhibited | aqueous solubility (Aqueous solubility): poor
